Measurements published in patent US5658943A, “Phenylalanine derivatives as endothelin antagonists” (Warner-Lambert Company, priority 1995, dated 1997).
Where a SMILES comes first, the peptide text is derived from it. [ ]: non-standard residue; d: D form.

Key:
recombinant human ETA R = molecular target: T1, recombinant human ETA R (Homo sapiens, UniProt P25101); experiment: [125I]-ET-1 radioligand binding, Ltk- cells expressing recombinant human ETA R (HERBA-A); conditions: [125I]-ET-1 (40 pM), 2 hours at 37° C.
T1 construct: expressed in transfected cells; host or cells: Ltk- cells (membranes)
T1 sequence (P25101 21-427): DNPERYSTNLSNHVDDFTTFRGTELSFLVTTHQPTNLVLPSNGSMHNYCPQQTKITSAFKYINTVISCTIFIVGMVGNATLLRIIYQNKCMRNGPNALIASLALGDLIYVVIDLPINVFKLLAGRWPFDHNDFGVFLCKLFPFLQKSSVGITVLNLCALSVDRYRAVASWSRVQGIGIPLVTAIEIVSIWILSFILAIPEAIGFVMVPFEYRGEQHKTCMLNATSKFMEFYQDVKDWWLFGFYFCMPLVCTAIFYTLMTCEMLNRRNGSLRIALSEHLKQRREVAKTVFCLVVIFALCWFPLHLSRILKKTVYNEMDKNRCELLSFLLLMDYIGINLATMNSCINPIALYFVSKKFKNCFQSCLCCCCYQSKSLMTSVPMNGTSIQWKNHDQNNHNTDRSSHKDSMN
Description: (§1) The compounds of Formula I are valuable antagonists of endothelin.
(§2) The following cultured cells were used in binding experiments: rabbit renal artery vascular smooth muscle cells (ERBA-A), Ltk-cells expressing recombinant human ETA R (HERBA-A), and CHO-K1 cells expressing recombinant human ETB R (HERBA-B).
(§3) Membranes were prepared from cultured cells by lysing cells in cold lysis buffer (5 mM HEPES, 2 mM EDTA, pH 7.4) and homogenizing with a Dounce "A" homogenizer. The homogenate was centrifuged at 30,000×g for 20 minutes at 4° C. Membrane pellets were suspended in cold buffer containing 20 mM Tris, 2 mM EDTA, 200 μM Pefabloc, 10 μM phosphoramidon, 10 μM leupeptin, 1 μM pepstatin at pH 7.4 and frozen at -80° C. until use. Membranes were thawed and homogenized with a Brinkmann Polytron then diluted in tissue buffer containing 20 mM Tris, 2 mM EDTA, 200 μM Pefabloc and 100 μM bacitracin (pH 7.4). Radioligand and competing ligands were prepared in binding buffer containing 20 mMTris, 2 mM EDTA, and 0.1% BSA.
(§4) Competing binding assays were initiatedby combining membranes, [125I]-ET-1 (40 pM) and the competing ligand in a final volume of 250 μL and incubating for 2 hours at 37° C. The assay was terminated by filtration over Whatman GF/B filters which were presoaked with 50 mM Tris, pH 7.4 containing 0.2% BSA and 100 μM bacitracin. Nonspecific binding was defined as binding in the presence of 100 nMET-1.

rat cerebellum (ETB) = experiment: inhibition of ET-1 stimulated arachidonic acid release (AAR-B); assay type: cell-based; conditions: ET-1 (0.3 nM) stimulated [3H]arachidonic acid release, 30 minutes
From the text: as §1

recombinant human ETB R = molecular target: T2, recombinant human ETB R (Homo sapiens, UniProt P24530); experiment: [125I]-ET-1 radioligand binding, CHO-K1 cells expressing recombinant human ETB R (HERBA-B); conditions: [125I]-ET-1 (40 pM), 2 hours at 37° C.
T2 construct: expressed in transfected cells; host or cells: CHO-K1 cells (membranes)
T2 sequence (P24530 27-442): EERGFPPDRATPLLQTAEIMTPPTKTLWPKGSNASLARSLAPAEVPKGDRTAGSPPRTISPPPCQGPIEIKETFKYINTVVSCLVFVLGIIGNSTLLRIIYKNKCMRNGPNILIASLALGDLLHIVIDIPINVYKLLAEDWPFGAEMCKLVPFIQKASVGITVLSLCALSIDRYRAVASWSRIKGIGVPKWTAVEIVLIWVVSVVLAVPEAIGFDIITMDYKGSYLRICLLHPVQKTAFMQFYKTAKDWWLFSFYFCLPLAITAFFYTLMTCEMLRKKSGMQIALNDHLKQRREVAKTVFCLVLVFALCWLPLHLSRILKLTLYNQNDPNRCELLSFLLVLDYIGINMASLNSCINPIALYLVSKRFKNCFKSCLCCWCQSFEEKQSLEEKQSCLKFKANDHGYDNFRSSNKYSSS

ETB = conditions: isolated, endothelium-intact porcine pulmonary arteries; cited from earlier work
endothelin receptor [1] = conditions: rats; cited from earlier work
endothelin receptor [2] = conditions: rats; cited from earlier work; remark: listed apart in the source
[3] = molecular target: T3, rabbit renal artery vascular smooth muscle cells (ETA) (Oryctolagus cuniculus, UniProt A5A8K3); experiment: [125I]-ET-1 radioligand binding, rabbit renal artery vascular smooth muscle cells (ERBA-A); conditions: [125I]-ET-1 (40 pM), 2 hours at 37° C.
T3 construct: endogenous in cells; host or cells: cultured rabbit renal artery vascular smooth muscle cells (membranes)
T3 sequence (A5A8K3 21-427): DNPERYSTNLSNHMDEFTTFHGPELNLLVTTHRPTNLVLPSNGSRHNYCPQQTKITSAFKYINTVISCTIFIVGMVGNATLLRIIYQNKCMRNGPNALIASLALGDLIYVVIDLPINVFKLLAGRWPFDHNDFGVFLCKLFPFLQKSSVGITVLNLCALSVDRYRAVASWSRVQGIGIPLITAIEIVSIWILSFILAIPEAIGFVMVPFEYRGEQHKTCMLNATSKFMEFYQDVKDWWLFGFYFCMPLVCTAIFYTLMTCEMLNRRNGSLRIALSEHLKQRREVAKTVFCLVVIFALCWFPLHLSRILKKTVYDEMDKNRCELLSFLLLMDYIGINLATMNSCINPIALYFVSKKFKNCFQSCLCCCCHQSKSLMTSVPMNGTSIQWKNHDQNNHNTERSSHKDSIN
Description: as §1, §2, §3, §4

ETA /ETB receptor = conditions: in vivo; cited from earlier work
ETA [4] = conditions: mouse model of endotoxic shock; cited from earlier work
ET receptor = conditions: allergic sheep; cited from earlier work
ETA [5] = conditions: in vivo; cited from earlier work

Molecule: COc1cccc(CC(NC(=O)C(c2ccccc2)c2ccccc2)C(=O)O)c1OCc1ccccc1 (racemic) [Example 3, (R,S)-N-(Diphenylacetyl)-3-methoxy-2-(phenylmethoxy)-phenylalanine]
- IC50 (recombinant human ETA R): 3.4 µM
- IC50 (rat cerebellum (ETB)): 10 µM
- IC50 (recombinant human ETB R): 2 µM

Molecule: ET[1,3,11,15-Ala]
- vasorelaxation (ETB): caused vasorelaxation

Molecule: COc1cccc(Oc2c(NS(=O)(=O)c3ccc(C(C)(C)C)cc3)ncnc2OCCO)c1 [RO 46-2005]
- efficacy in model of acute renal ischemia (endothelin receptor [1]): effective
- efficacy in model of subarachnoid hemorrhage (endothelin receptor [2]): effective

Molecule: COc1cccc(SC(c2cccc(OC)c2)C(NC(=O)C(c2ccccc2)c2ccccc2)C(=O)O)c1 (racemic) [Example 35, (R,S; R,S)-2-Diphenylacetylamino-3-(3-methoxyphenyl)-3-(3-methoxyphenyl-sulfanyl)propionic acid]
- IC50 (recombinant human ETA R): 1.8 µM
- IC50 (recombinant human ETB R): 3 µM

Molecule: COc1cccc(CC(NC(=O)C(c2ccccc2)c2ccccc2)C(=O)O)c1Oc1ccc([N+](=O)[O-])cc1 (racemic) [Example 8, (R,S)-2-Diphenylacetylamino-3-[3-method-2-(4-nitro-phenol)phenyl]propionicacid]
- IC50 (recombinant human ETA R): > 25 µM
- IC50 [3]: 17 µM

Molecule: COc1cccc(CC(NC(=O)C(c2ccccc2)c2ccccc2)C(=O)O)c1OCCCc1ccccc1 (racemic) [Example 7, (R,S)-Diphenylacetylamino-3-[3-methoxy-2-(3-phenyl-propoxy)phenyl]propionicacid]
- IC50 (recombinant human ETA R): 9.3 µM
- IC50 (recombinant human ETB R): 9.4 µM

Molecule: CC(C)c1ccc(S(=O)(=O)NC(C(=O)O)C(c2ccc3c(c2)OCO3)c2ccc3c(c2)OCO3)cc1 (racemic) [Example 40, (R,S)-3,3-Bis-benzo[1,3]dioxol-5-yl-2-(4-isopropyl-benzenesulfonylamino)-propionic acid]
- IC50 (recombinant human ETA R): 4 µM
- IC50 (recombinant human ETB R): 16 µM

Molecule: CCCOc1ccc2c(c1)[C@@H](c1ccc(OC)cc1OCC(=O)O)[C@H](C(=O)O)[C@H]2c1ccc2c(c1)OCO2 [SB 209670]
- neointimal formation after angioplasty (ETA /ETB receptor): reduced neointimal formation

Molecule: COc1cccc(CC(NC(=O)N(c2ccccc2)c2ccccc2)C(=O)O)c1OCc1ccccc1 (racemic) [Example 5, (R,S)-3-(2Benzyloxy-3-methoxyphenyl)-2-(3,3-diphenyl-ureido) propionic acid]
- IC50 (recombinant human ETB R): 6.8 µM
- IC50 [3]: 13 µM

Molecule: COc1cccc(CC(NC(=O)C(c2ccccc2)c2ccccc2)C(=O)O)c1OCCc1ccccc1 (racemic) [Example 4, (R,S)-2-Diphenylacetylamino-3-[3-methoxy-2-(2-phenyl-ethoxy)phenyl]propionic acid]
- IC50 (recombinant human ETA R): 3.4 µM
- IC50 (rat cerebellum (ETB)): 6.1 µM
- IC50 (recombinant human ETB R): 1 µM
- IC50 [3]: 16 µM

Molecule: CC(C)C[C@@H]1NC(=O)[C@@H](C(C)C)NC(=O)[C@@H]2CCCN2C(=O)[C@@H](CC(=O)O)NC(=O)[C@@H](Cc2c[nH]c3ccccc23)NC1=O [BQ-123] (cyclo(L[dW][dD]P[dV]))
- survival rate (ETA [4]): significantly increased
- ET-1 induced bronchoconstriction and tracheal smooth muscle contraction (ET receptor): block
- early cerebral vasospasm following subarachnoid hemorrhage (ETA [5]): prevent early cerebral vasospasm

Molecule: COc1ccc(C(c2ccc3c(c2)OCO3)C(NC(=O)C(c2ccccc2)c2ccccc2)C(=O)O)cc1OCc1ccccc1 (racemic) [Example 23, (R,S: R,S)-3-Benzo[1,3]dioxol-5-yl-3-(3-benzyloxy-4-methoxyphenyl)-2-diphenyl-acetylaminopropionic acid]
- IC50 (recombinant human ETA R): 27 µM
- IC50 (recombinant human ETB R): 12 µM

Molecule: O=C(O)C(Cc1ccccc1OCc1ccccc1)NC(=O)C(c1ccccc1)c1ccccc1 (racemic) [Example 14, (R,S)-3-(2-Benzyloxyphenyl)-2-diphenylacetylamino-propionic acid]
- IC50 (recombinant human ETB R): 23 µM
- IC50 [3]: > 25 µM

Molecule: O=C(NC(C(=O)O)C(c1ccc2c(c1)OCO2)c1ccc2c(c1)OCO2)c1ccc2c(c1)OCO2 (racemic) [Example 38, (R,S)-2-[(Benzo[1,3]dioxole-5-carbonyl)-amino]-3,3-bis-benzo [1,3]dioxol-5-yl-propionic acid]
- IC50 (recombinant human ETA R): 1.3 µM
- IC50 (recombinant human ETB R): 13 µM

Molecule: COc1cccc(CC(NCC(c2ccccc2)c2ccccc2)C(=O)O)c1OCc1ccccc1 (racemic) [Example 16, (R,S)-3-(2-Benzyloxy-3-methoxyphenyl)-2-(2,2-diphenyl-ethylamino)propionic acid]
- IC50 (recombinant human ETB R): 9.7 µM
- IC50 [3]: 7.1 µM

Molecule: COc1cccc(CC(NC(=O)C(Cc2cccc3ccccc23)Cc2cccc3ccccc23)C(=O)O)c1OCc1ccccc1 (racemic) [Example 9, (R,S)-3-(2-Benzyloxy-3-methoxyphenyl)-2-(3-naphthalen-1-yl-2-naphthalen-1-ylmethylpropionylamino)propionic acid]
- IC50 (recombinant human ETB R): 2.2 µM
- IC50 [3]: > 25 µM

Molecule: COc1cccc(CC(NC(=O)C(c2ccccc2)C2CCCC2)C(=O)O)c1OCc1ccccc1 (racemic) [Example 10, (R,S; R,S)-3-(2-Benzyloxy-3-methoxyphenyl)-2-(2-cyclopentyl-2-phenyl-acetylamino)propionic acid]
- IC50 (recombinant human ETB R): 2.2 µM
- IC50 [3]: 23 µM

Molecule: O=C(NC(C(=O)O)C(c1ccc2c(c1)OCO2)c1ccc2c(c1)OCO2)C(c1ccccc1)c1ccccc1 (centres unmarked) [Example 21, 3,3 -Bis-benzo[1,3]dioxol-5-yl-2-diphenylacetylamino-propionic acid]
- IC50 (recombinant human ETA R): 1.3 µM
- IC50 (recombinant human ETB R): 2.5 µM
